Data: patent US5561131A, “Defaunation method” (Mallinckrodt Veterinary, Inc., priority 1991, dated 1996)

What was measured:
rumen bacteria [1] = assay: In vitro bacterial gas inhibition; assay type: cell-based; conditions: at the concentration known to kill protozoa
Protocol: Compounds of Table 1 were also tested for toxicity bacteria. This involved removing protozoa from rumen liquor by centrifugation at 2,000 g for 5 minutes and collecting the bacterial rich supernatant. Nitrogen and energy substrate was added to the bacterial preparation which was then dispensed in triplicate 10 ml volumes over the same range of compound concentrations (50, 150, 250 and 500 ppm.) referred to in Example 2. Control tubes were placed after every second compound to enable the inhibition of gas resulting from the compound to be assessed. […] It can be seen that these compounds are selective in their mode of action, in that they are more toxic to protozoa than bacteria.

rumen ciliate protozoa [2] = assay: Protozoal reduction in sheep; assay type: in vivo; design: concentration or dose not given beside the values; conditions: one week after dosing, relative to predosing numbers
Protocol: Defaunation compositions were prepared according to the method of Example 1.
Prior to dosing of the compound, a sample of rumen liquor (200 ml) was withdrawn to establish basal numbers of protozoa.
The sample was collected using a stomach tube, inserted into the rumen via a rumen cannula (fistulated animals) or per esophagus (intact animals). After straining the sample was well mixed using a magnetic stirrer and a 0.5 ml sample was withdrawn and added to 49.5 ml of a crystal violet stain. Protozoa were counted using a microscope and a Hawksley counting chamber.
One week after administering the compound, another rumen liquor sample was collected (as described above) and examined for the presence of protozoa. Where rumen ciliate protozoa were undetectable, a reduction or inhibition value of 100% was recorded. In general, most compounds expressed a strong inhibitory effect on protozoal populations.

rumen bacteria [3] = assay: Bacterial viability in sheep after administering defaunation compounds; assay type: in vivo; conditions: gas production one week after dosing vs pre-dosing
Protocol: In order to establish what effect the compounds had on the viability of rumen bacteria, a sample of rumen liquor was collected prior to dosing of the compound. The sample was withdrawn under vacuum using a pre-warmed tube inserted into the rumen through a rumen cannula. The sample was collected in a pre-warmed (39° C.) flask, gassed with carbon dioxide and covered. Two-pre-warmed 30 ml centrifuge tubes were then filled with well mixed rumen liquor and centrifuged at 2000 rpm for 5 minutes. Half the volume of each tube was then poured into another pre-warmed tube without disturbing the sediment. Three lots of 10 ml of this rumen liquor were then pipetted into 15 ml tubes which contained 10 μL of urea solution (40% w/v and 300 μL of glucose solution (50% w/v). The urea and glucose acted as substrate for the bacteria. The tubes were then gassed with carbon dioxide, stoppered and placed in a water bath at 39° C. After 10 minutes a 5 ml glass syringe was secured into the stoppers (through which a hypodermic needle had been inserted) and the gas collected for five hours and recorded.
This bacterial viability measure was then repeated one week after dosing with each of the compounds referred to in Table 1. Defaunation compositions were prepared according to the method of Example 1. The amount of gas produced was then compared with the pre-dosing level. The criterion for classifying post-dosing bacterial viability is shown below:
Poor--reduction in post-dosing gas production relative to pre-dosing levels.
OK--post-dosing gas production the same as pre-dosing levels.
Good--increase in post-dosing gas production relative to pre-dosing levels.

rumen ciliate protozoa [4] = assay: In vitro activity of defaunation compounds against rumen ciliate protozoa; assay type: cell-based; conditions: 39° C., anaerobic, 3 hours, tested at 50, 150, 250 and 500 ppm
Protocol: Compounds of Table 1 were tested for their toxicity against rumen ciliate protozoa by firstly isolating protozoa from rumen liquor collected from faunated animals. The rumen liquor was then centrifuged at 500 g for five minutes and the supernatant discarded. The protozoal-rich sediment was then reconstituted in McDougal's artificial saliva. Residual bacteria were suppressed by using a combination of two antibiotics at low concentration. Nitrogen and energy substrate was optimized for the protozoal preparation. At all times the protozoal preparation was maintained at 39° C. and kept anaerobic.
Sixty milligrams of each the compounds of Table 1 were dissolved in 1.2 ml of dimethyl sulphoxide and dispersed in triplicate to achieve a final concentration of 50, 150, 250 and 500 ppm. Ten milliliters of protozoal preparation was then added to each tube. After every second compound, control tubes were included which contained everything except for compound. The tubes, to which a 5 ml glass syringe was attached, were then incubated for 3 hours in a water bath at 39° C. The production of gas causes the syringe plunger to be displaced.
At the end of the incubation period, the volume of gas produced was recorded and the viability of the protozoa assessed visually using a microscope. The toxicity of the compounds to protozoa was assessed from both the reduction in gas produced relative to the control and by direct observation of the protozoa for movement of cilia.

mice = assay: Mouse safety assessment; assay type: in vivo; conditions: oral gavage, 830, 415 and 217 mg/kg, observed for 2 days
Protocol: Compounds of Table 1 chosen for testing in sheep were first tested in mice for signs of toxicity. Because sheep are approximately 5 times more sensitive than mice to compounds dosed orally, the dose rates applied to mice were 5 times greater than the target dose rate of 500 ppm. in rumen liquor (83 mg/kg live weight) used for sheep. Each compound was screened at three different dose levels, high (830 mg/kg), medium (415 mg/kg) and low (217 mg/kg).
252 mg of compound was used for dilution into a high medium and low dose rate. 252 mg of compound was mixed with 3 ml of G1284 solution (4% w/v ethoxylated castor oil and 0.05% w/v simethicone), to form the high dose composition. The medium dose composition was formed by diluting 1.5 ml of the high dose with 1.5 ml of G1284 solution. The low dose composition was formed by diluting 1.5 ml of the medium dose with 1.5 ml of G1284 solution. Before the high dose could be diluted it was first manually ball milled in an effort to produce a fine suspension of the compound.
All mice were weighed before dosing to calculate the appropriate dose rate. The calculation for dose rate was: [formula]
Each mouse was dosed using the Gavage method. With this method the mouse is dosed orally by way of an angled hypodermic needle (18 g) with a smooth spherical end. It is gently placed down the esophagus. All care must be taken not to force the needle and injure the esophagus or dose into the lungs.
Observations were made at 10, 30, 60 and 120 minutes after dosing, then every 1 or 2 hours for the first 6 hours.
Mice were usually observed for 2 days.
Typically, few compounds fell within the poor classification. The majority of compounds tested were either in the fair or good classification.

[5] = Effect of defaunation compounds on feed intake of sheep; assay type: in vivo; conditions: after dosing vs pre-dosing intake
Protocol: Sheep were allowed a minimum of three weeks to adapt to their ration of 900 g of oaten chaff and 100 g of Lucerne chaff. The pre-dosing level of intake for each animal was established from the mean of five days intake immediately prior to dosing. Any effects of administering the compound on feed intake was then determined by measuring the level of feed intake after dosing.
The criteria of classifying the effect on food intake are shown below.
Poor--greater than 50% reduction in feed intake during the first week after dosing.
Fair--greater than 50% reduction in feed intake on the day following dosing but less then 50% reduction one week after dosing.
OK--transient drop in feed intake which is less than 50% on the day after dosing.
Good--No reduction in feed intake following dosing.

| SMILES | Bact. Gas Inhibition at the conc. required to kill protozoa (rumen bacteria [1]) | Protozoal Reduction (rumen ciliate protozoa [2]) [%] | Bacterial Viability (rumen bacteria [3]) | Conc Required to Kill all Protozoa (rumen ciliate protozoa [4]) [ppm] | Mouse Safety Assessment (mice) | Feed Intake [5] |
| --- | --- | --- | --- | --- | --- | --- |
| Clc1nc(Cl)nc(Nc2cccc(I)c2)n1 [Compound 22] | 75 | 100 | Okay | 150 | Fair (>2 mice sick) | Good |
| Clc1nc(Cl)nc(Nc2ccc(-c3ccccc3)cc2)n1 [Compound 25] | 53 | – | – | 150 | – | – |
| CSc1cccc(Nc2nc(Cl)nc(Cl)n2)c1 [Compound 15] | 52 | 100 | Good | 150 | Fair (>2 mice sick) | Good |
| COc1ccc(Nc2nc(Cl)nc(Cl)n2)cc1OC [Compound 17] | 43 | 98 | Okay | 250 | Good | Fair |
| Clc1nc(Cl)nc(Nc2ccc(Cl)c(Cl)c2)n1 [Compound 7] | 30 | 100 | Poor | 250 | Fair (>2 mice sick) | Poor (greater than 50% reduction between day 2 to day 8) |
| Clc1nc(Cl)nc(Nc2cc(Cl)c(Cl)c(Cl)c2)n1 [Compound 24] | 67 | 100 | Okay | 150 | Good | Good |
| COc1ccc(Nc2nc(Cl)nc(Cl)n2)c([N+](=O)[O-])c1 [Compound 31] | 39 | – | – | 250 | – | – |
| Cc1ccc(Nc2nc(Cl)nc(Cl)n2)cc1C [Compound 10] | 55 | 100 | Good | 250 | Fair (>2 mice sick) | Good |
| Cc1cc(O)c(C(C)(C)C)cc1Nc1nc(Cl)nc(Cl)n1 [Compound 34] | 81 | – | – | 250 | – | – |
| Cc1ccc(N(C)c2nc(Cl)nc(Cl)n2)c(C)c1 [Compound 12] | 35 | – | – | 250 | – | – |
| O=[N+]([O-])c1cccc(Nc2nc(Cl)nc(Cl)n2)c1 [Compound 16] | 47 | 72 | Good | 250 | – | Good |
| Cc1ccc(N(C)c2nc(Cl)nc(Cl)n2)cc1 [Compound 33] | 33 | – | – | 250 | – | – |
| CC(C)(C)c1ccc(Nc2nc(Cl)nc(Cl)n2)cc1 [Compound 20] | 55 | 100 | Okay | 150 | Fair (>2 mice sick) | Good |
| Cc1ccc(Nc2nc(Cl)nc(Cl)n2)cc1[N+](=O)[O-] [Compound 26] | 47 | – | – | 250 | – | – |
| CC(C)c1ccc(Nc2nc(Cl)nc(Cl)n2)cc1 [Compound 21] | 55 | 100 | Good | 150 | Fair (>2 mice sick) | Good |
| Cc1ccccc1Nc1nc(Cl)nc(Cl)n1 [Compound 8] | 43 | 96 | Okay | 250 | Good | Okay (transient drop, less than 50% at day 2) |
| Clc1nc(Cl)nc(Nc2ccc(I)cc2)n1 [Compound 11] | 71 | 84 | Okay | 250 | Fair (>2 mice sick) | Good |
| CN(c1ccccc1)c1nc(Cl)nc(Cl)n1 [Compound 14] | 38 | – | – | 250 | – | – |
| Cc1ccc(Nc2nc(Cl)nc(Cl)n2)cc1 [Compound 6] | 40 | 100 | Okay | 150 | Poor (death at 840 mg/kg) | Okay (transient drop, less than 50% at day 2) |
| Oc1ccc(Nc2nc(Cl)nc(Cl)n2)cc1 [Compound 4] | 43 | 100 | Poor | 250 | – | Poor (greater than 50% reduction between day 2 to day 8) |
| Clc1nc(Cl)nc(Nc2ccc(Br)cc2)n1 [Compound 3] | 45 | 100 | Good | 250 | – | Good |
| COc1ccc(Nc2nc(Cl)nc(Cl)n2)c(C)c1 [Compound 13] | 48 | – | – | 250 | – | – |
| Clc1nc(Cl)nc(Nc2ccccc2)n1 [Compound 1] | 43 | – | – | 250 | – | – |
